Laboratory results as given in patent publication US10912814B2, “Combination formulation of three antiviral compounds” (priority 2016, dated 2021).

Assays:
[1] = Photostability (light exposure, ICH Q1B); type: physicochemical; conditions: for Total Imp./Deg. Products (%): tablets
Procedure: In some embodiments, and the Examples presented herein, the tablet formulation includes sofosbuvir having Form 6 and, optionally, a trace amount of Form 7.
Tablet cores and film-coated tablets were evaluated per ICH Q1B guidelines with a total of illumination of more than 1.2 million-lux hours and a total irradiance of more than 200 W·hr/m^2.

[2] = Storage stability: appearance, assay/label strength (LS), total impurities/degradation products; type: physicochemical
Procedure: In some embodiments, the film-coated tablets were packaged in 75 and 100 mL white HDPE bottles (Lots A and B, respectively, as described in Tables 11A, 11B) with 1 g silica gel desiccant canisters and a polyester fiber coil. The 75 and 100 mL HDPE bottles contained fourteen and twenty eight tablets, respectively. Each HDPE bottle was capped using a white, continuous thread, child-resistant polypropylene screw cap with an […], aluminum-faced line. The packaged tablets (14 and 28 counts) were evaluated for stability at 40° C./75% RH and 25° C./60% RH. Additionally, the 14-count bottles (without cap) were evaluated for stability under open conditions at 40° C./75% RH.
For each of the impact studies, the sofosbuvir/velpatasvir SSD/voxilaprevir SSD tablets were packaged in a designated commercial packaging configuration (28-count, 100 mL HPDE bottle, coil, 1 g desiccant), and stored for 12 weeks at 25° C./60% RH and 40° C./75% RH. Tablets were also packaged in open containers (28-count, 100 mL HPDE bottle without cap) and stored for 4 weeks at 40° C./75% RH and for 1 week at 50° C./92% RH.
The sofosbuvir/velpatasvir SSD/voxilaprevir SSD tablets were packaged in the designated commercial packaging configuration (28-count, 100 mL HPDE bottle, coil, 1 g desiccant), and stored for 6 months at 25° C./60% RH and 40° C./75% RH.

CC(C)OC(=O)C(C)N[P@](=O)(OC[C@H]1O[C@@H](n2ccc(=O)[nH]c2=O)[C@](C)(F)[C@@H]1O)Oc1ccccc1 (stereo in doubt) [Sofosbuvir, (S)-isopropyl 2-(((S)-(((2R,3R,4R,5R)-5-(2,4-dioxo-3,4-dihydropyrimidin-1(2H)-yl)-4-fluoro-3-hydroxy-4-methyltetrahydrofuran-2-yl)methoxy)(phenoxy)phosphoryl)amino)propanoate]
0.0%: level of degradation products ([1]; tablets film-coated to weight gains of 2.1 to 5.4%, ICH Q1B) | Total Imp./Deg. Products (%) ([1]; film-coating 0% weight gain, Exposed to Light) | Total Imp./Deg. Products (%) ([1]; film-coating 0% weight gain, Protected from Light) | Total Imp./Deg. Products (%) ([1]; film-coating 2.1% weight gain, Exposed to Light) | Total Imp./Deg. Products (%) ([1]; film-coating 2.1% weight gain, Protected from Light) | Total Imp./Deg. Products (%) ([1]; film-coating 3.4% weight gain, Exposed to Light) | Total Imp./Deg. Products (%) ([1]; film-coating 3.4% weight gain, Protected from Light) | Total Imp./Deg. Products (%) ([1]; film-coating 4.1% weight gain, Exposed to Light) | Total Imp./Deg. Products (%) ([1]; film-coating 4.1% weight gain, Protected from Light) | Total Imp./Deg. Products (%) ([1]; film-coating 5.4% weight gain, Exposed to Light) | Total Imp./Deg. Products (%) ([1]; film-coating 5.4% weight gain, Protected from Light) | Total Imp./Deg. (%) ([2]; Batch C tablets, closed 1 g desiccant, 25° C./60% RH, 3 months) | Total Imp./Deg. (%) ([2]; Batch C tablets, closed 1 g desiccant, 25° C./60% RH, 6 months) | Total Imp./Deg. (%) ([2]; Batch C tablets, closed 1 g desiccant, 30° C./75% RH, 3 months) | Total Imp./Deg. (%) ([2]; Batch C tablets, closed 1 g desiccant, 30° C./75% RH, 6 months) | Total Imp./Deg. (%) ([2]; Batch C tablets, closed 1 g desiccant, 40° C./75% RH, 1 month) | Total Imp./Deg. (%) ([2]; Batch C tablets, closed 1 g desiccant, 40° C./75% RH, 3 months) | Total Imp./Deg. (%) ([2]; Batch C tablets, closed 1 g desiccant, 40° C./75% RH, 6 months) | Total Imp./Deg. (%) ([2]; Batch C tablets, closed 1 g desiccant, Initial, time 0) | Total Imp./Deg. Products (%) ([2]; SOF/VEL SSD/VOX SSD granules (Lot F), glass vials, Initial, 0 months) | total impurities/degradation products ([2]; desiccant/packaging study tablets, all conditions, 6 months) | total impurities/degradation products ([2]; granules (Lot F), over 6 month storage at 25° C./60% RH and 40° C./75% RH, open and closed) | total impurities/degradation products ([2]; packaged Formulation G tablets (Tables 11A, 11B), 40° C./75% RH and 25° C./60% RH for 6 months) | total impurities/degradation products ([2]; packaged tablets Batch A, up to 6 months under all conditions) | total impurities/degradation products ([2]; packaged tablets Batch D, up to 1 month under all conditions) | total impurities/degradation products ([2]; packaged tablets Batches B and C, up to 6 months under all conditions) | total impurities/degradation products ([2]; tablet Lots A-D from sub-potent/super-potent VEL SSD and VOX SSD, all conditions) | Total Imp./Deg. (%) ([2]; tablets Batch A, 25° C./60% RH, 3 mo) | Total Imp./Deg. (%) ([2]; tablets Batch A, 25° C./60% RH, 6 mo) | Total Imp./Deg. (%) ([2]; tablets Batch A, 30° C./75% RH, 3 mo) | Total Imp./Deg. (%) ([2]; tablets Batch A, 30° C./75% RH, 6 mo) | Total Imp./Deg. (%) ([2]; tablets Batch A, 40° C./75% RH, 1 mo) | Total Imp./Deg. (%) ([2]; tablets Batch A, 40° C./75% RH, 3 mo) | Total Imp./Deg. (%) ([2]; tablets Batch A, 40° C./75% RH, 6 mo) | Total Imp./Deg. (%) ([2]; tablets Batch A, Initial, 0 mo) | Total Imp./Deg. (%) ([2]; tablets Batch B, 25° C./60% RH, 3 mo) | Total Imp./Deg. (%) ([2]; tablets Batch B, 25° C./60% RH, 6 mo) | Total Imp./Deg. (%) ([2]; tablets Batch B, 30° C./75% RH, 3 mo) | Total Imp./Deg. (%) ([2]; tablets Batch B, 30° C./75% RH, 6 mo) | Total Imp./Deg. (%) ([2]; tablets Batch B, 40° C./75% RH, 1 mo) | Total Imp./Deg. (%) ([2]; tablets Batch B, 40° C./75% RH, 3 mo) | Total Imp./Deg. (%) ([2]; tablets Batch B, 40° C./75% RH, 6 mo) | Total Imp./Deg. (%) ([2]; tablets Batch B, Initial, 0 mo) | Total Imp./Deg. (%) ([2]; tablets Batch D, 40° C./75% RH, 1 mo) | Total Imp./Deg. (%) ([2]; tablets Batch D, Initial, 0 mo) | Total Imp./Deg. (%) ([2]; tablets Lot A, 25° C./60% RH Closed, 1 mo) | Total Imp./Deg. (%) ([2]; tablets Lot A, 25° C./60% RH Closed, 3 mo)
